Experimental data taken from patent US7485644B2, “N-{'4-substituted piperazine-1-sulfonylmethylalkyl}-n-hydroxyfomamide compounds as metalloproteinase inhibitors” (AstraZeneca AB, priority 2003, dated 2009).

What was measured:
Collagenase 3 (MMP13) = target: T1, Collagenase 3 (MMP13) (Homo sapiens, UniProt P45452); assay: Collagenase 3 (MMP13) enzyme inhibition, fluorogenic peptide substrate; format: biochemical; details: recombinant human proMMP13 activated with APMA; 4-5 hours at 35° C., pH 7.5; fluorescence λex 328 nm, λem 393 nm; read-out: IC50 (nM), collagenase 3 (MMP13) inhibitory activity
T1 construct: made in house
Excerpt: The activity and selectivity of the compounds according to the invention may be determined using an appropriate enzyme inhibition test as described in WO 00/12478, WO 00/75108 and WO 01/62742. Collagenase 3 (MMP13) inhibitory activity may be assessed, for example, using the procedure set out below:—
Recombinant human proMMP13 may be expressed and purified as described by Knauper et al. [V. Knauper et al., (1996) The Biochemical Journal 271:1544-1550 (1996)]. The purified enzyme can be used to monitor inhibitors of activity as follows: purified proMMP13 is activated using 1 mM amino phenyl mercuric […] (APMA), 20 hours at 21° C.; the activated MMP13 (11.25 ng per assay) is incubated for 4-5 hours at 35° C. in assay buffer (0.1M Tris-HCl, pH 7.5 containing 0.1M NaCl, 20 mM CaCl2, 0.02 mM ZnCl and 0.05% (w/v) Brij 35 using the synthetic substrate 7-methoxycoumarin-4-yl)acetyl.Pro.Leu.Gly.Leu.N-3-(2,4-dinitrophenyl)-L-2,3-diaminopropionyl.Ala.Arg.NH2 in the presence or absence of inhibitors. Activity is determined by measuring the fluorescence at λex 328 nm and λem 393 nm. By measuring the activity at a range of concentrations, a binding curve can be generated from which the IC50 can be determined, this figure being the inhibitor concentration at which the enzyme activity is reduced by 50%.

Row | Compound | IC50 (Collagenase 3 (MMP13)) [nM] | melting point [°C]
1 | O=CN(O)[C@@H](CCCc1ncccn1)CS(=O)(=O)N1CCN(c2ncc(OCC(F)(F)F)cn2)CC1 [Example 1, Hydroxy{(1S)-4-pyrimidin-2-yl-1-[({4-[5-(2,2,2-trifluoroethoxy)pyrimidin-2-yl]piperazin-1-yl}sulfonyl)methyl]butyl}formamide] |  | 129 to 133
2 | O=CN(O)C(CCc1ncc(F)cn1)CS(=O)(=O)N1CCN(c2ccc(OCC(F)(F)F)cn2)CC1 (centres unmarked) [Example 2b] | 0.24 | 
3 | O=CN(O)C(CS(=O)(=O)N1CCN(c2ncc(OCC(F)(F)F)cn2)CC1)C1CCOCC1 (centres unmarked) [Example 2f] | 13 | 
4 | O=CN(O)[C@@H](CCc1ncccn1)CS(=O)(=O)N1CCN(c2ccc(OCC(F)(F)F)cn2)CC1 [Example 3, Hydroxy{(1S)-3-pyrimidin-2-yl-1-[({4-[5-(2,2,2-trifluoroethoxy)pyridin-2-yl]piperazin-1-yl}sulfonyl)methyl]propyl}formamide] |  | 149 to 151
5 | O=CN(O)[C@H](CS(=O)(=O)N1CCN(c2ccc(OC(F)(F)C(F)F)cc2)CC1)C1CCOCC1 [Example 4, Hydroxy[(1S)-2-({4-[4-(1,1,2,2-tetrafluoroethoxy)phenyl]piperazin-1-yl}sulfonyl)-1-(tetrahydro-2H-pyran-4-yl)ethyl]formamide] |  | 175 to 176
6 | O=CN(O)C(CS(=O)(=O)N1CCN(c2ccc(OC(F)(F)C(F)F)cc2)CC1)c1ccccc1 (centres unmarked) [Example 5, Hydroxy[1-phenyl-2-({4-[4-(1,1,2,2-tetrafluoroethoxy)phenyl]piperazin-1-yl}sulfonyl)ethyl]formamide] | 3.6 | 

Other lines, results leading:

Row | IC50 (Collagenase 3 (MMP13)) [nM] | melting point [°C] | Compound
7 | 2.8 |  | CCC(CS(=O)(=O)N1CCN(c2ccc(OC(F)(F)C(F)F)cc2)CC1)N(O)C=O (racemic) [Example 7f]
8 | 0.12 |  | O=CN(O)C(CCCc1ncccn1)CS(=O)(=O)N1CCN(c2ccc(OC(F)(F)C(F)F)cc2)CC1 (centres unmarked) [Example 7a]
9 | 0.19 |  | O=CN(O)C(CCc1ncc(F)cn1)CS(=O)(=O)N1CCN(c2ccc(OC(F)(F)C(F)F)cc2)CC1 (centres unmarked) [Example 7c]
10 | 1.5 |  | O=CN(O)C(CCc1ncccn1)CS(=O)(=O)N1CCN(c2ccc(OCC(F)(F)F)cc2)CC1 (centres unmarked) [Example 8b]
11 | 4 |  | O=CN(O)C(CS(=O)(=O)N1CCN(c2ccc(OCC(F)(F)F)cc2)CC1)C1CCOCC1 (centres unmarked) [Example 8g]
